Experiments:
[1] = system: HRV type 1A; assay: Inhibition of viral cytopathic effect (CPE), visual scoring or neutral red, HRV type 1A in MRC-5 cells; format: cell-based, human rhinovirus; conditions: for Activity on Rhinovirus Type 1A EC50: HRV type 1A in MRC-5 cells, CPE inhibition; for Activity on Rhinovirus Type 1A SI: selectivity index = CC50 or MTC divided by EC50, HRV type 1A, MRC-5 cells
[2] = system: HRV type 2; assay: Inhibition of viral cytopathic effect (CPE), visual scoring or neutral red, HRV type 2 in KB cells; format: cell-based, human rhinovirus; conditions: for Activity on Rhinovirus Type 2 EC50: HRV type 2 in KB cells, CPE inhibition; for Activity on Rhinovirus Type 2 SI: selectivity index = CC50 or MTC divided by EC50, HRV type 2, KB cells
[3] = system: human embryo lung (MRC-5) cells; assay: Cytotoxicity (CC50 or MTC) in uninfected MRC-5 cells; conditions: unit not given

Structure (SMILES)	Activity on Rhinovirus Type 1A EC50 [1] [µg/mL]	Activity on Rhinovirus Type 1A SI [1]	Activity on Rhinovirus Type 2 EC50 [2] [µg/mL]	Activity on Rhinovirus Type 2 SI [2]	Activity on Rhinovirus Type 1A MTC [3]
CCON=C(C)c1ccc(OCCC2CCN(c3ccc(Cl)nn3)CC2)cc1 [Compound 3]	0.005	1841	0.01	>100	>10.0
CCON=C(C)c1ccc(OCCC2CCN(c3ccc(C)nn3)CC2)cc1 [Compound 4]	0.39	25.55	0.5	>2	10.00
CCON=C(C)c1cc(OC)c(OCCC2CCN(c3ccc(Cl)nn3)CC2)c(OC)c1 [Compound 6]	0.06	>167.09	0.1	>500	>10.00
CON=C(C)c1ccc(OCCC2CCN(c3ccc(C)nn3)CC2)cc1 [Compound 9]	<0.0032	>312	0.08	>13	>1
CCC(=NOC)c1ccc(OCCC2CCN(c3ccc(Cl)nn3)CC2)cc1 [Compound 10]	0.0142	>70.54	0.4	>3	>1
CC(C)ON=Cc1ccc(OCCC2CCN(c3ccc(Cl)nn3)CC2)cc1 [Compound 12]	0.00355	>273.7	0.02	50	>1
N#CCON=Cc1ccc(OCCC2CCN(c3ccc(Cl)nn3)CC2)cc1 [Compound 14]	<0.0032	>312	0.046	13	>1
Clc1ccc(N2CCC(CCOc3ccc(C=NOCc4ccccc4)cc3)CC2)nn1 [Compound 15]	>1.0		0.9	<1	>1.0
CON=Cc1cccc(OCCC2CCN(c3ccc(Cl)nn3)CC2)c1 [Compound 16]	<0.0032	>312	<0.001	>1000	>1
CON=Cc1ccc(OC)c(OCCC2CCN(c3ccc(Cl)nn3)CC2)c1 [Compound 17]	0.00612	>163.2	>1		>1
CCON=Cc1cccc(OCCCC2CCN(c3ccc(C)nn3)CC2)c1 [Compound 98]	0.255	>3			>1
C=CCON=Cc1cccc(OCCCC2CCN(c3ccc(C)nn3)CC2)c1 [Compound 99]	0.205	>4			>1
CON=Cc1ccc(OCCCC2CCN(c3cccnn3)CC2)cc1 [Compound 102]	0.059	>17			>1
CCON=Cc1ccc(OCCCC2CCN(c3cccnn3)CC2)cc1 [Compound 103]	0.266	>3			>1
CON=Cc1cccc(OCCCC2CCN(c3cccnn3)CC2)c1 [Compound 105]	0.126	>8			>1
C=CCON=Cc1cccc(OCCCC2CCN(c3cccnn3)CC2)c1 [Compound 107]	0.062	>16			>1
CON=C(C)c1cc(C)c(OCCCc2cc(C)no2)c(C)c1 [Compound 109]	0.053	>18.8			>1
C#CCON=Cc1cc(C)c(OCCCc2cc(C)no2)c(C)c1 [Compound 119]	0.046	>21.4			>1

Structure (SMILES)	Activity on Rhinovirus Type 1A EC50 [1] [µg/mL]	Activity on Rhinovirus Type 1A SI [1]	Activity on Rhinovirus Type 2 EC50 [2] [µg/mL]	Activity on Rhinovirus Type 2 SI [2]	Activity on Rhinovirus Type 1A MTC [3]
CCON=Cc1cc(C)c(OCCCCCCc2cc(C)no2)c(C)c1 [Compound 120]	0.04	>20			>1
CCON=Cc1cc(C)c(OCCCCCCCc2cc(C)no2)c(C)c1 [Compound 121]	0.05	>16			>1
CCON=Cc1cc(C)c(OCCCCCc2cc(C)no2)c(C)c1 [Compound 122]	0.181	>5			>1
CCON=Cc1cc(C)c(OCCCCc2cc(C)no2)c(C)c1 [Compound 123]	0.060	>16			>1
Cc1cc(CCCOc2c(C)cc(C=NOCC(F)(F)F)cc2C)on1 [Compound 124]	0.719	>1			>1
CCON=Cc1ccc(OCCC2CCN(c3ccc(CO)nn3)CC2)cc1 [Compound 129]	0.048	>20			>1
CCCON=Cc1cccc(OCCN2CCN(c3ccc(C)nn3)CC2)c1 [Compound 136]	0.598	>1			>1
CCON=Cc1cc(C)c(OCCCc2cc(C3CC3)no2)c(C)c1 [Compound 137]	0.054	>18			>1
CCON=Cc1cc(C)c(OCCCCc2cc(CC)no2)c(C)c1 [Compound 138]	0.07	>15			>1
CCCc1cc(CCCCOc2c(C)cc(C=NOCC)cc2C)on1 [Compound 139]	0.19	>5			>1
CON=Cc1ccc(OCCC2CCCN(c3ccc(Cl)nn3)C2)cc1 (stereo not drawn) [Compound 140]	0.016	>61			>1
C=CCON=Cc1ccc(OCCC2CCCN(c3ccc(Cl)nn3)C2)cc1 (stereo not drawn) [Compound 141]	0.166	>6			>1
CCON=Cc1ccc(OCCC2CCCN(c3ccc(Cl)nn3)C2)cc1 (stereo not drawn) [Compound 142]	0.055	>18			>1
Cc1ccc(N2CCC(CCOc3ccc(C=NOCCF)cc3)CC2)nn1 [Compound 143]	0.020	>50			>1
CCO/N=C/c1ccc(OCCCCCNc2ccc(Cl)nn2)cc1 [Compound 147]	0.194	>5			>1
CCO/N=C/c1ccc(OCCC2CCN(c3cnc4cc(Cl)ccc4n3)CC2)cc1 [Compound 210]	3.96	>2.5			>10
CCO/N=C/c1ccc(Oc2cnc3cc(Cl)ccc3n2)cc1 [Compound 211]	0.07	>151			>10

Reference: US7078403B1, “Antiviral agents” (Biota Scientific Management Pty Ltd., priority 1999, dated 2006)
